In patent US20060030600A1, “Dual NK1/NK3 receptor antagonists for the treatment of schizophrenia” (priority 2004, published 2006):

Key:
[1] = molecular target: T1, Recombinant human NK3 (hNK3) receptor (Homo sapiens, UniProt P29371); assay: NK3 receptor affinity, [3H]SR142801 binding; settings: hNK3 receptor membranes, [3H]SR142801 0.3 nM; read-out: pki NK3 (converted)
T1 construct: expressed in transfected cells
T1 sequence (P29371 1-465): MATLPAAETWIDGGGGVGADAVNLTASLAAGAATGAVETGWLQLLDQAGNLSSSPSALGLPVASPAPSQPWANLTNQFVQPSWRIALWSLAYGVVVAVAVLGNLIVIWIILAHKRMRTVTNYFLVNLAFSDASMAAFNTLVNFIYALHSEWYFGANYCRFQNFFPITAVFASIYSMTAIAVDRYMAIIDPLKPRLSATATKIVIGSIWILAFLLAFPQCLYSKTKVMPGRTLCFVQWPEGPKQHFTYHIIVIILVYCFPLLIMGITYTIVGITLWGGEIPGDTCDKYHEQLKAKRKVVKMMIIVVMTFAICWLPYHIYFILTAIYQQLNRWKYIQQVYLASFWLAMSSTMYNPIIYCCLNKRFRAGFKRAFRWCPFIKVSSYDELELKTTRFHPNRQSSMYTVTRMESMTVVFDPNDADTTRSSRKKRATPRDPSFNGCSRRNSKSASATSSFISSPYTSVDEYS
Description: Recombinant human NK3 (hNK3) receptor affinity was determined in a 96 well plate assay, using [^3H]SR142801 (final concentration 0.3 nM) to radiolabel the hNK3 receptor in the presence of 10 concentrations of competing compound or buffer. Non specific binding was determined using 10 μM SB222200. Assay buffer consisted of Tris-HCl (50 mM, pH 7.4), BSA (0.1%), MnCl2 (4 mM) and phosphoramidon (1 μM). Membrane preparations of hNK3 receptors (approximately 2.5 μg/well in a 96 well plate) were used to initiate the incubation for 90 min at room temperature. This assay was terminated by rapid filtration under vacuum through GF/C filters, presoaked for 90 min with PEI (0.3%), with 3×0.5 ml washes of ice-cold Tris buffer (50 mM, pH 7.4) containing 0.1% BSA. The radioactivity retained on the filters was measured by scintillation counting. All assays were performed in duplicate in at least two separate experiments.

human NK1 receptor = human NK1 receptor (Homo sapiens, UniProt P25103); assay: NK1 receptor affinity, [3H]substance P binding; settings: human NK1 receptors in CHO cells, [3H]substance P 0.6 nM; read-out: pki NK1 (converted)
Description: The affinity of test compounds for the NK1 receptor was evaluated at human NK1 receptors in CHO cells infected with the human NK1 receptor (using the Semliki virus expression system) and radiolabelled with [^3H]substance P (final concentration 0.6 nM). Binding assays were performed in HEPES buffer (50 mM, pH 7.4) containing BSA (0.04%) leupeptin (16.8 μg/ml), MnCl2 (3mM) and phosphoramidon (2 μM). Binding assays consisted of 250 μl of membrane suspension (approximately 1.5 μg/well in a 96 well plate), […] of buffer of displacing agent and 125 μl of [^3H]substance P. Displacement curves were determined with at least seven concentrations of the compound. The assay tubes were incubated for 60 min at room temperature after which time the tube contents were rapidly filtered under vacuum through GF/C filters presoaked for 60 min with PEI (0.3%) with 3×1 ml washes of HEPES buffer (50 mM, pH 7.4). The radioactivity retained on the filters was measured by scintillation counting. All assays were performed in duplicate in at least 2 separate experiments.

[2] = phase II trial, cited from earlier work

Sequence of human NK1 receptor (P25103 whole entry): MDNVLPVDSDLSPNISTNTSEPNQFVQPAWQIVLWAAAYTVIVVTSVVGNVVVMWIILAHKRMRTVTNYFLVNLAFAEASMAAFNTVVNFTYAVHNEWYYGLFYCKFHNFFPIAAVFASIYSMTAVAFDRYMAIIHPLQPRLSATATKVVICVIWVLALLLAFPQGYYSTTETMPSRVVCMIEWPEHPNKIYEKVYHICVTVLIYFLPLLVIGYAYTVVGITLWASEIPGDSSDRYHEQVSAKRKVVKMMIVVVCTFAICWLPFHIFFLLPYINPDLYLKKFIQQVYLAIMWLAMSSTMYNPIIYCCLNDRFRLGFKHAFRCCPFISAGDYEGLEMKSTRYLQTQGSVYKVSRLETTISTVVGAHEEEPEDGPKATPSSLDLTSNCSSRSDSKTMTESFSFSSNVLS

SMILES	Ki [1] [nM]	Ki (human NK1 receptor) [nM]	activity on positive symptoms of schizophrenia ([2]; altered behaviour, delusion, hallucinations, extreme emotions, excited motor activity, incoherent speech)	activity on negative symptoms of schizophrenia ([2]; depression, anhedonia, social isolation or memory and attention deficits)
Cc1cc(F)ccc1-c1cc(C2CCCN(S(C)(=O)=O)C2)ncc1N(C)C(=O)C(C)(C)c1cc(C(F)(F)F)cc(C(F)(F)F)c1 (racemic) [Example 12, (RS)-2-(3,5-Bis-trifluoromethyl-phenyl)-N-[4-(4-fluoro-2-methyl-phenyl)-1′-methanesulfonyl-1′,2′,3′,4′,5′,6′-hexahydro-[2,3′]bipyridinyl-5-yl]-N-methyl-isobutyramide]	21.4	0.589		
CC(=O)N1CCCC(c2cc(-c3ccc(F)cc3C)c(N(C)C(=O)C(C)(C)c3cc(C(F)(F)F)cc(C(F)(F)F)c3)cn2)C1 (racemic) [Example 13, (RS)-N-[1′-Acetyl-4-(4-fluoro-2-methyl-phenyl)-1′,2′,3′,4′,5′,6′-hexahydro-[2,3′]bipyridinyl-5-yl]-2-(3,5-bis-trifluoromethyl-phenyl)-N-methyl-isobutyramide]	14.5	1.62		
CN(C(=O)C(C)(C)c1cc(C(F)(F)F)cc(C(F)(F)F)c1)c1cnc(OCCO)cc1-c1ccccc1Cl [Example 1, 2-(3,5-Bis-trifluoromethyl-phenyl)-N-[4-(2-chloro-phenyl)-6-(2-hydroxy-ethoxy)-pyridin-3-yl]-N-methyl-isobutyramide]	19.5	0.562		
CN(C(=O)C(C)(C)c1cc(C(F)(F)F)cc(C(F)(F)F)c1)c1cnc(OC(CO)CO)cc1-c1ccccc1Cl [Example 2, 2-(3,5-Bis-trifluoromethyl-phenyl)-N-[4-(2-chloro-phenyl)-6-(2-hydroxy-1-hydroxymethyl-ethoxy)-pyridin-3-yl]-N-methyl-isobutyramide]	9.12	1.23		
Cc1cc(F)ccc1-c1cc(OC[C@@H]2CCCN2)ncc1N(C)C(=O)C(C)(C)c1cc(C(F)(F)F)cc(C(F)(F)F)c1 [Example 3, (S)-2-(3,5-Bis-trifluoromethyl-phenyl)-N-[4-(4-fluoro-2-methyl-phenyl)-6-(pyrrolidin-2-ylmethoxy)-pyridin-3-yl]-N-methyl-isobutyramide]	23.4	0.851		
Cc1cc(F)ccc1-c1cc(SCCO)ncc1N(C)C(=O)C(C)(C)c1cc(C(F)(F)F)cc(C(F)(F)F)c1 [Example 4, 2-(3,5-Bis-trifluoromethyl-phenyl)-N-[4-(4-fluoro-2-methyl-phenyl)-6-(2-hydroxy-ethylsulfanyl)-pyridin-3-yl]-N-methyl-isobutyramide]	8.51	2.34		
Cc1cc(F)ccc1-c1cc(-c2cccnc2)ncc1N(C)C(=O)C(C)(C)c1cc(C(F)(F)F)cc(C(F)(F)F)c1 [Example 5, 2-(3,5-Bis-trifluoromethyl-phenyl)-N-[4-(4-fluoro-2-methyl-phenyl)-[2,3′]bipyridinyl-5-yl]-N-methyl-isobutyramide]	16.2	1.29		
Cc1cc(F)ccc1-c1cc(-c2ccc[n+]([O-])c2)ncc1N(C)C(=O)C(C)(C)c1cc(C(F)(F)F)cc(C(F)(F)F)c1 [Example 6, 2-(3,5-Bis-trifluoromethyl-phenyl)-N-[4-(4-fluoro-2-methyl-phenyl)-1′-oxy-[2,3′]bipyridinyl-5-yl]-N-methyl-isobutyramide]	24.5	0.977		
Cc1cc(F)ccc1-c1cc(-c2cccc(CO)c2)ncc1N(C)C(=O)C(C)(C)c1cc(C(F)(F)F)cc(C(F)(F)F)c1 [Example 7, 2-(3,5-Bis-trifluoromethyl-phenyl)-N-[4-(4-fluoro-2-methyl-phenyl)-6-(3-hydroxymethyl-phenyl)-pyridin-3-yl]-N-methyl-isobutyramide]	6.92	1.2		
Cc1cc(F)ccc1-c1cc(-c2cncc(CO)c2)ncc1N(C)C(=O)C(C)(C)c1cc(C(F)(F)F)cc(C(F)(F)F)c1 [Example 8, 2-(3,5-Bis-trifluoromethyl-phenyl)-N-[4-(4-fluoro-2-methyl-phenyl)-5′-hydroxymethyl-[2,3′]bipyridinyl-5-yl]-N-methyl-isobutyramide]	6.17	1.82		
Cc1cc(F)ccc1-c1cc(-c2ccnc(CO)c2)ncc1N(C)C(=O)C(C)(C)c1cc(C(F)(F)F)cc(C(F)(F)F)c1 [Example 9, 2-(3,5-Bis-trifluoromethyl-phenyl)-N-[4-(4-fluoro-2-methyl-phenyl)-2′-hydroxymethyl-[2,4′]bipyridinyl-5-yl]-N-methyl-isobutyramide]	11.5	1.55		
Cc1cc(F)ccc1-c1cc(C2=CCN(S(C)(=O)=O)CC2)ncc1N(C)C(=O)C(C)(C)c1cc(C(F)(F)F)cc(C(F)(F)F)c1 [Example 10, 2-(3,5-Bis-trifluoromethyl-phenyl)-N-[4-(4-fluoro-2-methyl-phenyl)-1′-methanesulfonyl-1′,2′,3′,6′-tetrahydro-[2,4′]bipyridinyl-5-yl]-N-methyl-isobutyramide]	2.63	0.617		
Cc1cc(F)ccc1-c1cc(C2CCN(S(C)(=O)=O)CC2)ncc1N(C)C(=O)C(C)(C)c1cc(C(F)(F)F)cc(C(F)(F)F)c1 [Example 11, 2-(3,5-Bis-trifluoromethyl-phenyl)-N-[4-(4-fluoro-2-methyl-phenyl)-1′-methanesulfonyl-1′,2′,3′,4′,5′,6′-hexahydro-[2,4′]bipyridinyl-5-yl]-N-methyl-isobutyramide]	6.46	1.1		
Cc1cc(F)ccc1-c1cc(C2=CCSCC2)ncc1N(C)C(=O)C(C)(C)c1cc(C(F)(F)F)cc(C(F)(F)F)c1 [Example 14, 2-(3,5-Bis-trifluoromethyl-phenyl)-N-[6-(3,6-dihydro-2H-thiopyran-4-yl)-4-(4-fluoro-2-methyl-phenyl)-pyridin-3-yl]-N-methyl-isobutyramide]	14.1	1.15		
Cc1cc(F)ccc1-c1cc(C2=CCS(=O)(=O)CC2)ncc1N(C)C(=O)C(C)(C)c1cc(C(F)(F)F)cc(C(F)(F)F)c1 [Example 15, 2-(3,5-Bis-trifluoromethyl-phenyl)-N-[6-(1,1-dioxo-1,2,3,6-tetrahydro-1λ^6-thiopyran-4-yl)-4-(4-fluoro-2-methyl-phenyl)-pyridin-3-yl]-N-methyl-isobutyramide]	6.76	0.589		
Cc1cc(F)ccc1-c1cc(C2CCS(=O)(=O)CC2)ncc1N(C)C(=O)C(C)(C)c1cc(C(F)(F)F)cc(C(F)(F)F)c1 [Example 16, 2-(3,5-Bis-trifluoromethyl-phenyl)-N-[6-(1,1-dioxo-hexahydro-1λ^6-thiopyran-4-yl)-4-(4-fluoro-2-methyl-phenyl)-pyridin-3-yl]-N-methyl-isobutyramide]	16.6	1.38		
CC(=O)N(C)C1(c2ccccc2)CCN(CCC[C@]2(c3ccc(Cl)c(Cl)c3)CCCN(C(=O)c3ccccc3)C2)CC1 [SR 142,801, Osanetant]			active on positive symptoms of schizophrenia	inactive in the treatment of negative symptoms
